Reference: ChEMBL document CHEMBL3399936, “Selective CB2 receptor agonists. Part 1: the identification of novel ligands through computer-aided drug design (CADD) approaches” (Bioorg Med Chem Lett, 2015)
≈ marks a conversion by molar mass, not a printed value.

Tests used:
Homo sapiens = species: Homo sapiens; assay: Ratio of EC50 for human CB1 receptor to EC50 for human CB2 receptor
Cannabinoid receptor 1 [1] = target: T1, Cannabinoid receptor 1 (Homo sapiens, UniProt P21554); assay: Inhibition of human CB1 receptor expressed in CHO cells assessed as inhibition of forskolin-induced cAMP accumulation after 30 mins; assay type: functional, cell-based
Cannabinoid receptor 2 = Cannabinoid receptor 2 (Homo sapiens, UniProt P34972); assay: Inhibition of human CB2 receptor expressed in CHO cells assessed as inhibition of forskolin-induced cAMP accumulation after 30 mins; assay type: functional, cell-based
Cannabinoid receptor 1 [2] = target: T1, Cannabinoid receptor 1; assay: Partial agonist activity at human CB1 receptor expressed in CHO cells assessed as cAMP accumulation after 30 mins; assay type: functional, cell-based
[3] = Solubility of the compound at pH 7.4 after 16 to 18 hrs by UV spectrophotometry; assay type: physicochemical; conditions: buffer
[4] = Half life in human liver microsomes at 1 uM by LC/MS/MS analysis; assay type: ADME

Sequence of Cannabinoid receptor 2 (P34972 whole entry): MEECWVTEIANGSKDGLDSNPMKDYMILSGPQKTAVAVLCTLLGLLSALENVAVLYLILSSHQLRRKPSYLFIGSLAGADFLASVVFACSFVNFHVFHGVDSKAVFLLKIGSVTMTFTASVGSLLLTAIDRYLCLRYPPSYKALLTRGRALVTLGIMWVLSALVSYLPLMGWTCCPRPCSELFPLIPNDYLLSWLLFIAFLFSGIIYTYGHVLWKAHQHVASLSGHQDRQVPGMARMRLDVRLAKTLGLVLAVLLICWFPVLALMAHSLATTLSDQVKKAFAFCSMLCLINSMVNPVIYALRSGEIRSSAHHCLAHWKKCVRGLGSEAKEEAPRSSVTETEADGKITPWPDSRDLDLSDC
T1 sequence (P21554 whole entry): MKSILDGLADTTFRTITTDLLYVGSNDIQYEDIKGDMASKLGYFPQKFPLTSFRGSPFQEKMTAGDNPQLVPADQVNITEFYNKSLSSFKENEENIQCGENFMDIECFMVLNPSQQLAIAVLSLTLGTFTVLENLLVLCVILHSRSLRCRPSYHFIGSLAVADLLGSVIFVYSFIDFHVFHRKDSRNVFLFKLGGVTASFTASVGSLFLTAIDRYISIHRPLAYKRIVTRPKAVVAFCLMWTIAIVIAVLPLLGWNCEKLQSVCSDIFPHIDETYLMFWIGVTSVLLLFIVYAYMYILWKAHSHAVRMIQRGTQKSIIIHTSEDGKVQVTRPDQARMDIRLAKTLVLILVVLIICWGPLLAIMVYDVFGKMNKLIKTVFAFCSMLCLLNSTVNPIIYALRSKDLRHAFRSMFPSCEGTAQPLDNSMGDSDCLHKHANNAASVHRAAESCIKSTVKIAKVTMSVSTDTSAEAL

## CC(C)(C)c1cc(NC(=O)[C@]2(C)CCCN2c2ccc(C(F)(F)F)cn2)no1
Homo sapiens
  Ratio EC50: 12
Cannabinoid receptor 1 [1]
  EC50: 0.5 nM
Cannabinoid receptor 2
  EC50: 0.04 nM

## CC(C)(C)c1cc(NC(=O)[C@H]2CCCN2c2ccc(Cl)cc2)no1
Cannabinoid receptor 1 [2]
  Activity: < 70%

## CC(C)(C)c1cc(NC(=O)[C@]2(C)CCCN2c2ccc(C(F)(F)F)cc2)no1
Homo sapiens
  Ratio EC50: 52
Cannabinoid receptor 1 [1]
  EC50: 15 nM
Cannabinoid receptor 2
  EC50: 0.29 nM

## CC(C)(C)c1cc(NC(=O)[C@]2(C)CCCN2c2ccc(Cl)cc2)no1
Homo sapiens
  Ratio EC50: 257
Cannabinoid receptor 1 [1]
  EC50: 54 nM

## CC(C)(C)c1cc(NC(=O)C(C)(C)S(=O)(=O)c2ccc(C(F)(F)F)cn2)no1
Homo sapiens
  Ratio EC50: 140
[3]
  solubility: 12 µg/mL (≈ 28.6 µM)
Cannabinoid receptor 1 [1]
  EC50: 420 nM
[4]
  half-life at 1 µM: < 5 min
Cannabinoid receptor 2
  EC50: 3 nM

## CC(C)(C)c1cc(NC(=O)C(C)(C)S(=O)(=O)c2ccc(C(F)(F)F)cc2)no1
Homo sapiens
  Ratio EC50: 545
Cannabinoid receptor 1 [1]
  EC50: 420 nM
Cannabinoid receptor 2
  EC50: 0.77 nM

## CCCCc1ccc(NC(=O)N2CCN(C(=O)CCC3CCCC3)CC2)cc1
Cannabinoid receptor 2
  EC50: > 20 nM

## CC(C)(C)c1cc(NC(=O)[C@H]2CCCN2c2ccc(C(F)(F)F)cc2)no1
Cannabinoid receptor 1 [2]
  Activity: < 70%

## O=C(Nc1cc(C(F)(F)F)on1)N1CCCN(C(=O)c2ccc(C(F)(F)F)cn2)CC1
Homo sapiens
  Ratio EC50: 50
[3]
  solubility: 0.4 µg/mL (≈ 0.886 µM)
Cannabinoid receptor 1 [1]
  EC50: 253 nM
[4]
  half-life at 1 µM: 9 min
Cannabinoid receptor 2
  EC50: 5 nM

## O=C(Nc1cc(C(F)(F)F)on1)N1CCCN(C(=O)c2ccc(C(F)(F)F)cc2)CC1
Homo sapiens
  Ratio EC50: 714
Cannabinoid receptor 1 [1]
  EC50: 1000 nM
Cannabinoid receptor 2
  EC50: 1.4 nM

## CC(C)(C)c1cc(NC(=O)[C@@H]2CCCN2c2ncc(C(F)(F)F)cc2Cl)no1
Homo sapiens
  Ratio EC50: 88
Cannabinoid receptor 1 [1]
  EC50: 7 nM

## CC(C)(C)c1cc(NC(=O)N2CC3CC2CN3C(=O)c2ccc(C(F)(F)F)cc2)no1 (stereo not given)
Cannabinoid receptor 2
  EC50: > 20 nM
